Laboratory results: ChEMBL document CHEMBL1154680, “Alkyl and dialkylaminoethyl derivatives of 5-amino-2-azabicyclo[3.2.2]nonanes and their antiplasmodial and antitrypanosomal activities” (Eur J Med Chem, 2010)

Columns and labels:
Plasmodium falciparum = experiment: Antiplasmodial activity against chloroquine and pyrimethamine-resistant Plasmodium falciparum K1 by microplate assay; assay type: functional, organism-based
[1] = Selectivity index, ratio of IC50 for rat L6 cells to IC50 for chloroquine and pyrimethamine-resistant Plasmodium falciparum K1; assay type: toxicity, cell-based; details: read-out: Ratio IC50
[2] = test system: Trypanosoma brucei rhodesiense; experiment: […] activity against Trypanosoma brucei rhodesiense STIB 900 by microplate assay; assay type: functional, organism-based
[3] = Selectivity index, ratio of IC50 for rat L6 cells to IC50 for Trypanosoma brucei rhodesiense STIB 900; assay type: toxicity, cell-based; details: read-out: Ratio IC50
L6 = experiment: Cytotoxicity against rat L6 cells; assay type: cell-based

CN(C)C12CCN(Cc3ccccc3)C(C(c3ccccc3)C1)C(c1ccccc1)C2 (racemic)
IC50 (Plasmodium falciparum): 0.6 µM | selectivity ratio [1]: 12.2 | IC50 [2]: 1.41 µM | selectivity ratio [3]: 5.2 | IC50 (L6): 7.33 µM

c1ccc(C2CC3(N4CCCCC4)CCN(CCN4CCCC4)C2C(c2ccccc2)C3)cc1 (racemic)
IC50 (Plasmodium falciparum): 0.092 µM | selectivity ratio [1]: 1690 | IC50 [2]: 25.6 µM | selectivity ratio [3]: 6.09 | IC50 (L6): 156 µM

c1ccc(CCN2CCC3(N4CCCC4)CC(c4ccccc4)C2C(c2ccccc2)C3)cc1 (racemic)
IC50 (Plasmodium falciparum): 0.96 µM | selectivity ratio [1]: 3.84 | IC50 [2]: 0.93 µM | selectivity ratio [3]: 3.97 | IC50 (L6): 3.69 µM

Clc1ccc(C2CC3(N4CCCCC4)CCNC2C(c2ccc(Cl)cc2)C3)cc1 (stereo not given)
selectivity ratio [1]: 17.6 | selectivity ratio [3]: 125

CN(C)C12CCN(CCN3CCCC3)C(C(c3ccccc3)C1)C(c1ccccc1)C2 (racemic)
IC50 (Plasmodium falciparum): 0.59 µM | selectivity ratio [1]: 136 | IC50 [2]: 1.32 µM | selectivity ratio [3]: 60.9 | IC50 (L6): 80.4 µM

CN(C)C12CCN(CCc3ccccc3)C(C(c3ccc(Cl)cc3)C1)C(c1ccc(Cl)cc1)C2 (racemic)
IC50 (Plasmodium falciparum): 0.47 µM | selectivity ratio [1]: 7.23 | IC50 [2]: 0.93 µM | selectivity ratio [3]: 3.66 | IC50 (L6): 3.4 µM

c1ccc(CCN2CCC3(N4CCCCC4)CC(c4ccccc4)C2C(c2ccccc2)C3)cc1 (racemic)
IC50 (Plasmodium falciparum): 0.71 µM | selectivity ratio [1]: 11.8 | IC50 [2]: 1.2 µM | selectivity ratio [3]: 7 | IC50 (L6): 8.4 µM

CN1CCC2(N3CCCC3)CC(c3ccc(Cl)cc3)C1C(c1ccc(Cl)cc1)C2 (racemic)
IC50 (Plasmodium falciparum): 0.87 µM | selectivity ratio [1]: 8.44 | IC50 [2]: 0.35 µM | selectivity ratio [3]: 21 | IC50 (L6): 7.34 µM

Clc1ccc(C2CC3(N4CCCC4)CCNC2C(c2ccc(Cl)cc2)C3)cc1 (stereo not given)
selectivity ratio [1]: 40.2 | selectivity ratio [3]: 152

CN(C)C12CCNC(C(c3ccc(Cl)cc3)C1)C(c1ccc(Cl)cc1)C2 (stereo not given)
selectivity ratio [1]: 21.3 | selectivity ratio [3]: 143

Clc1ccc(C2CC3(N4CCCC4)CCN(CCc4ccccc4)C2C(c2ccc(Cl)cc2)C3)cc1 (racemic)
IC50 (Plasmodium falciparum): 0.52 µM | selectivity ratio [1]: 8.12 | IC50 [2]: 1.14 µM | selectivity ratio [3]: 3.7 | IC50 (L6): 4.22 µM

CN1CCC2(N(C)C)CC(c3ccccc3)C1C(c1ccccc1)C2 (racemic)
IC50 [2]: 1.76 µM | selectivity ratio [3]: 61.9 | IC50 (L6): 109 µM

c1ccc(CN2CCC3(N4CCCC4)CC(c4ccccc4)C2C(c2ccccc2)C3)cc1 (racemic)
IC50 (Plasmodium falciparum): 0.82 µM | selectivity ratio [1]: 5.67 | IC50 [2]: 0.9 µM | selectivity ratio [3]: 5.17 | IC50 (L6): 4.65 µM

Clc1ccc(C2CC3(N4CCCCC4)CCN(CCc4ccccc4)C2C(c2ccc(Cl)cc2)C3)cc1 (racemic)
IC50 (Plasmodium falciparum): 0.73 µM | selectivity ratio [1]: 10.8 | IC50 [2]: 1.86 µM | selectivity ratio [3]: 4.24 | IC50 (L6): 7.89 µM

CN1CCC2(N3CCCC3)CC(c3ccccc3)C1C(c1ccccc1)C2 (racemic)
IC50 (Plasmodium falciparum): 1.72 µM | selectivity ratio [1]: 53.5 | IC50 [2]: 1.86 µM | selectivity ratio [3]: 49.5 | IC50 (L6): 92.1 µM

C[C@@H]1CC[C@H]2[C@@H](C)C(=O)O[C@@H]3O[C@@]4(C)CC[C@@H]1[C@]32OO4 [ARTEMISININ]
IC50 (Plasmodium falciparum): 0.0064 µM

c1ccc(C2CC3(N4CCCC4)CCN(CCN4CCCC4)C2C(c2ccccc2)C3)cc1 (racemic)
IC50 (Plasmodium falciparum): 0.5 µM | selectivity ratio [1]: 116 | IC50 [2]: 3.38 µM | selectivity ratio [3]: 17.2 | IC50 (L6): 58.2 µM

CN(C)C12CCN(CCc3ccccc3)C(C(c3ccccc3)C1)C(c1ccccc1)C2 (racemic)
IC50 (Plasmodium falciparum): 0.12 µM | selectivity ratio [1]: 38.3 | IC50 [2]: 0.57 µM | selectivity ratio [3]: 8.07 | IC50 (L6): 4.6 µM
